Consider 17 compounds from PMC12723578 (Archiv Der Pharmazie, 2025).

“And” between values parts separate entries of the source, which are not always exact repeats. Equal entries are not always repeated. Structures can show the parent of a compound that is named as a salt. Where two headings read alike, the source gives them in different places.

In data set [1] the test system is SARS‐CoV‐2. As to conditions: A549‐ACE2 cells; cited from earlier work.
For data set [2] the following is noted: phase I study, single‐dose treatment, fasted conditions, without ritonavir coadministration; cited from earlier work.
For data set [3], the target named is T1, SARS‐CoV‐2 M^pro (Severe acute respiratory syndrome coronavirus 2, UniProt P0DTD1). Description: Screening of M^pro inhibition at 10 and 50 µM (fluorogenic substrate Boc‐Abu‐Tle‐Leu‐Gln‐AMC). The class given is biochemical. The note with it: for M^pro inhibition (in words): screened at 10 and 50 µM.
Data set [4] concerns the target T1, SARS‐CoV‐2 M^pro. Description: Investigation of inhibition reversibility by jump dilution. The class given is biochemical. As to conditions: 25 min preincubation, 100‐fold jump dilution.
The nature of data set [5]: In vitro stability in human plasma. In kind it is in vitro ADME. The note with it: plasma diluted to 80% with sodium phosphate buffer, pH 7.4, male human plasma, 37°C, read-out: plasma half‐life t 1/2. How it is done: For the investigation of the in vitro stability of 12 in human plasma, 100 µM of the M^pro inhibitor was incubated with male human plasma at 37°C for five different time periods.
A volume of 30 µL of a 2 mM compound stock solution in DMSO was mixed with 570 µL of a male human plasma solution (Biomol GmbH, Hamburg, Germany) that was diluted to 80% with 0.05 M sodium phosphate buffer, pH 7.4, and prewarmed at 37°C. The final compound concentration was 100 µM, and the DMSO concentration was 5% (v/v). The mixture was divided into aliquots of 100 µL, which were incubated for different time periods and subsequently quenched by the addition of 200 µL of a 0.05 mg/mL reserpine (internal standard) and 2% AcOH (v/v) solution in MeOH. The samples were vortexed for 1 min, stored on ice for 15 min, and subsequently centrifuged at 15,000 rpm and 4°C for 2 min. After filtration through a 0.45 µm polytetrafluoroethylene membrane filter, the resulting solutions were analyzed by HPLC (Jasco Deutschland GmbH, Pfungstadt, Germany). […] The residual proportion was plotted versus incubation time and non‐linear regression according to Y(t) = Y 0 × e^ (‐kt) provided the first‐order rate constant of degradation k, with Y 0 being the compound proportion at t = 0 and Y(t) the residual proportion after a specific incubation time t. Equation t 1/2 = ln2/k afforded the plasma half‐life t 1/2 (n = 2).

In data set [6] the target is T1, SARS‐CoV‐2 M^pro. Put plainly: Determination of IC50 and K i values. The class given is biochemical. As to conditions: for Ki: calculated from IC50 with the Cheng‐Prusoff equation.
The target of data set [7] is T1, SARS‐CoV‐2 M^pro. Put plainly: Determination of k inac/K i for irreversible inhibitors. The note with it: for k inac/K i: second‐order rate constant of enzyme inactivation, reactions monitored for 60 min. In kind it is biochemical.
The test system of data set [8] is SARS‐CoV‐2. Description: Cellular antiviral activity, virus plaque assay in A549‐ACE2 cells. In kind it is cell-based.
For the next data set, the system named is A549‐ACE2 cells. As to conditions: up to 100 µM.
A further data set in a line: in vitro. The note with it: human.
The nature of data set [9]: Stability in aqueous media.
Setting [10] is: read-out: Inhibition @ [I] = 50 µM (%).
Setting [11] is: read-out: Inhibition @ [I] = 10 µM (%).
Where [12] appears, read: [I] = 10 µM, product formation determined after 10 min.
Where [13] appears, read: [I] = 50 µM, product formation determined after 10 min.
Setting [14] is: product formation determined after 10 min.

For the compound `CC(C)(C)[C@H](NC(=O)C(F)(F)F)C(=O)N1C[C@H]2[C@@H]([C@H]1C(=O)N[C@H](C#N)C[C@@H]1CCNC1=O)C2(C)C` [nirmatrelvir], the EC50 with SARS‐CoV‐2 [1] is 0.054 µM. In addition, in data set [2], the “plasma half‐life” value is 2.03 h.
Consider `CC(C)(C)[C@H](NC(=O)c1cccs1)C(=O)N[C@@H](Cc1ccccc1)C(=O)NN(Cc1cccc(Cl)c1)C(=O)C(Cl)Cl` [Compound 13, N‐{[S]‐1‐[({S}‐1‐{2‐(3‐Chlorobenzyl)‐2‐(2,2‐dichloroacetyl)hydrazineyl}‐1‐oxo‐3‐phenylpropan‐2‐yl)amino]‐3,3‐dimethyl‐1‐oxobutan‐2‐yl}thiophene‐2‐carboxamide], for which, on SARS‐CoV‐2 M^pro [3] (setting [10]), the inhibition at 50 µM was below 50%. Further, the “M^pro inhibition reversibility” value on SARS‐CoV‐2 M^pro [4] is on record as “Reversible”.
For the compound `CCN(CC)CCOC(=O)c1ccc(N)cc1` [Procaine hydrochloride, reference compound], in data set [5], the half-life at 100 µM was found to be 0.13 ± 0.0157 h.
`COC(=O)/C=C(\C(=O)OC)N(C)NC(=O)[C@H](Cc1ccccc1)NC(=O)OCc1ccccc1` [Compound 2, Dimethyl 2‐{2‐[({benzyloxy}carbonyl)‐L‐phenylalanyl]‐1‐methylhydrazineyl}maleate]: at SARS‐CoV‐2 M^pro [3] (setting [11]), the inhibition at 10 µM was 1%. Further, the inhibition at 50 µM on SARS‐CoV‐2 M^pro [3] (setting [10]) was found to be 2%. For the same compound, the “M^pro inhibition (in words)” value at SARS‐CoV‐2 M^pro [3] was “inactive”.
Take `CN(NC(=O)[C@H](Cc1ccccc1)NC(=O)OCc1ccccc1)C(=O)C(F)Cl` (stereo partly shown) [Compound 8, Benzyl {[2S]‐1‐[2‐(2‐chloro‐2‐fluoroacetyl)‐2‐methylhydrazinyl]‐1‐oxo‐3‐phenylpropan‐2‐yl}carbamate]: on SARS‐CoV‐2 M^pro [3] (setting [11]), the inhibition at 10 µM was found to be 10%. The inhibition at 50 µM on SARS‐CoV‐2 M^pro [3] (setting [10]) came to 16%. For the same compound, the “M^pro inhibition (in words)” value at SARS‐CoV‐2 M^pro [3] is listed as “failed to strongly inhibit”.
On the same counts, the results for `CN(NC(=O)[C@H](Cc1ccccc1)NC(=O)OCc1ccccc1)C(=O)C(F)(F)Cl` [Compound 9, Benzyl (S)‐{1‐[2‐(2‐chloro‐2,2‐difluoroacetyl)‐2‐methylhydrazineyl]‐1‐oxo‐3‐phenylpropan‐2‐yl}carbamate] are 9%, 15% and “failed to strongly inhibit”.
Turning to `CCOC(=O)N(C)NC(=O)[C@H](Cc1ccccc1)NC(=O)OCc1ccccc1` [Compound 3, Ethyl 2‐{[(N‐benzyloxy)carbonyl]‐L‐phenylalanyl}‐1‐5;methylhydrazine‐1‐carboxylate], the inhibition at 10 µM at SARS‐CoV‐2 M^pro [3] (setting [11]) is 2%. On SARS‐CoV‐2 M^pro [3] (setting [10]), the inhibition at 50 µM was found to be 3%. Also, the “M^pro inhibition (in words)” value at SARS‐CoV‐2 M^pro [3] is reported as “did not cause protease inhibition”.
Take `CN(CC#N)NC(=O)[C@H](Cc1ccccc1)NC(=O)OCc1ccccc1` [Compound 10, Benzyl (S)‐{1‐[2‐(cyanomethyl)‐2‐methylhydrazineyl]‐1‐oxo‐3‐phenylpropan‐2‐yl}carbamate]: the inhibition at 10 µM at SARS‐CoV‐2 M^pro [3] (setting [11]) worked out at 10%. Also, the inhibition at 50 µM at SARS‐CoV‐2 M^pro [3] (setting [10]) is 11%. Besides, the “M^pro inhibition (in words)” value at SARS‐CoV‐2 M^pro [3] is on record as “did not exhibit notable inhibitory properties”.
Consider `CN(NC(=O)[C@H](Cc1ccccc1)NC(=O)OCc1ccccc1)C(=O)C(Cl)Cl` [Compound 7, Benzyl (S)‐{1‐[2‐(2,2‐dichloroacetyl)‐2‐methylhydrazineyl]‐1‐oxo‐3‐phenylpropan‐2‐yl}carbamate], for which the inhibition at 10 µM on SARS‐CoV‐2 M^pro [3] (setting [12]) came to 85%. The inhibition at 50 µM at SARS‐CoV‐2 M^pro [3] (setting [13]) turned out to be 100%. Besides, on SARS‐CoV‐2 M^pro [6], the Ki was 1.22 ± 0.09 µM. The same compound registered an IC50 on SARS‐CoV‐2 M^pro [6] (setting [14]) of 2.47 ± 0.18 µM. The “M^pro inhibition reversibility” value on SARS‐CoV‐2 M^pro [4] is “reversible”.
At SARS‐CoV‐2 M^pro [3] (setting [13]), `CC(C)(C)[C@H](NC(=O)c1cccs1)C(=O)N[C@@H](Cc1ccccc1)C(=O)NN(Cc1cccc(Cl)c1)C(=O)CCl` [Compound 12, N‐{[S]‐1‐[({S}‐1‐{2‐(2‐Chloroacetyl)‐2‐(3‐chlorobenzyl)hydrazineyl}‐1‐oxo‐3‐phenylpropan‐2‐yl)amino]‐3,3‐dimethyl‐1‐oxobutan‐2‐yl}thiophene‐2‐carboxamide] returned an inhibition at 50 µM of 100%. Moreover, the Ki at SARS‐CoV‐2 M^pro [6] was 0.023 ± 0.0017 µM. The compound also registered an IC50 at SARS‐CoV‐2 M^pro [6] (setting [14]) of 0.0466 ± 0.0034 µM. Moreover, the “improvement of k inac/K i value versus 14” value on SARS‐CoV‐2 M^pro [7] (12 compared with 14) was determined as 50 fold. In addition, at SARS‐CoV‐2 M^pro [7], the “k inac/K i” value was 78,900 M^−1s^−1 and 78,900 ± 12,800 M^−1s^−1 and 100% inhibition @ 50 µM^a Ki = 0.0230 µM^b kinac/Ki = 78,900 M^-1s^-1 c EC50 = 0.47 µM^d M^−1s^−1. Besides, the “M^pro inhibition reversibility” value on SARS‐CoV‐2 M^pro [4] is on record as “irreversible”. The EC50 in the data set on SARS‐CoV‐2 [8] (Severe acute respiratory syndrome coronavirus 2, A549‐ACE2 cells, MOI 0.1, 24 h postinfection, plaque assay, read-out: EC50) turned out to be 0.47 µM. In addition, the half-life at 100 µM in data set [5] is 1.6 ± 0.148 h. Also, the cytotoxicity entry in the data set with A549‐ACE2 cells was “no cytotoxicity”. Besides, in “in vitro”, the CC50 at 24 h is above 100 µM.
As for `COC(=O)/C=C/N(C)NC(=O)[C@H](Cc1ccccc1)NC(=O)OCc1ccccc1` [Compound 1, Methyl (E)‐3‐{2‐[({benzyloxy}carbonyl)‐L‐phenylalanyl]‐1‐methylhydrazineyl}acrylate], the inhibition at 10 µM at SARS‐CoV‐2 M^pro [3] (setting [11]) was found to be 4%. Moreover, the inhibition at 50 µM on SARS‐CoV‐2 M^pro [3] (setting [10]) is 0%. In addition, the “M^pro inhibition (in words)” value at SARS‐CoV‐2 M^pro [3] is “inactive”.
With `CN(NC(=O)[C@H](Cc1ccccc1)NC(=O)OCc1ccccc1)S(=O)(=O)F` [Compound 11, Benzyl (S)‐{1‐[2‐(fluorosulfonyl)‐2‐methylhydrazineyl]‐1‐oxo‐3‐phenylpropan‐2‐yl}carbamate], the inhibition at 10 µM at SARS‐CoV‐2 M^pro [3] (setting [11]) stood at 40%. Besides, on SARS‐CoV‐2 M^pro [6], the IC50 stood at 14.7 ± 0.7 µM and the Ki was 7.24 ± 0.34 µM. Also, the “k inac/K i” value at SARS‐CoV‐2 M^pro [7] is 54.6 ± 25.0 M⁻¹ s⁻¹ and 54.6 M⁻¹ s⁻¹. Besides, the “M^pro inhibition reversibility” value on SARS‐CoV‐2 M^pro [4] is listed as “irreversible”. Also, the “stability in aqueous media” value in data set [9] is reported as “not sufficiently stable”.
With `Cn1cnc(Cn2c(=O)[nH]/c(=N\c3cc4cn(C)nc4cc3Cl)n(Cc3cc(F)c(F)cc3F)c2=O)n1` [ensitrelvir, reference compound], in the data set with SARS‐CoV‐2 [8] (Severe acute respiratory syndrome coronavirus 2, A549-ACE2, 24 h), the EC50 stood at 0.028 µM. The CC50 in “in vitro” was above 100 µM.
Regarding `CCOC(=O)/C=C/C(=O)N(C)NC(=O)[C@H](Cc1ccccc1)NC(=O)OCc1ccccc1` [Compound 5, Ethyl (E)‐4‐{2‐[({benzyloxy}carbonyl)‐L‐phenylalanyl]‐1‐methylhydrazineyl}‐4‐oxobut‐2‐enoate], the inhibition at 10 µM on SARS‐CoV‐2 M^pro [3] (setting [11]) is 7%. The inhibition at 50 µM at SARS‐CoV‐2 M^pro [3] (setting [10]) is 13%. Further, at SARS‐CoV‐2 M^pro [3], the “M^pro inhibition (in words)” value is given as “did not cause protease inhibition”.
At SARS‐CoV‐2 M^pro [3] (setting [12]), `CN(NC(=O)[C@H](Cc1ccccc1)NC(=O)OCc1ccccc1)C(=O)CCl` [Compound 6, Benzyl (S)‐{1‐[2‐(2‐chloroacetyl)‐2‐methylhydrazineyl]‐1‐oxo‐3‐phenylpropan‐2‐yl}carbamate] displayed an inhibition at 10 µM of 19%. At SARS‐CoV‐2 M^pro [3] (setting [13]), this compound came in with an inhibition at 50 µM of 55%. For the same compound, at SARS‐CoV‐2 M^pro [6], the inhibition constant Ki is 14.8 ± 0.8 µM. Also, the IC50 against SARS‐CoV‐2 M^pro [6] (setting [14]) came out at 30.1 ± 1.7 µM. Further, the “M^pro inhibition reversibility” value at SARS‐CoV‐2 M^pro [4] is reported as “irreversible”.
As for `COC(=O)CC(=O)N(C)NC(=O)[C@H](Cc1ccccc1)NC(=O)OCc1ccccc1` [Compound 4, Methyl 3‐{2‐[({benzyloxy}carbonyl)‐L‐phenylalanyl]‐1‐6;methylhydrazineyl}‐3‐oxopropanoate], the inhibition at 10 µM at SARS‐CoV‐2 M^pro [3] (setting [11]) amounted to 0%. Moreover, the inhibition at 50 µM at SARS‐CoV‐2 M^pro [3] (setting [10]) was determined as 0%. Moreover, at SARS‐CoV‐2 M^pro [3], the “M^pro inhibition (in words)” value was “inactive”.
As to `CC(C)(C)[C@H](NC(=O)c1cccs1)C(=O)N[C@@H](Cc1ccccc1)C(=O)NN(Cc1cccc(Cl)c1)C(=O)C(F)Cl` (mixture of isomers) [Compound 14, N‐{[2S]‐1‐[({2S}‐1‐{2‐(2‐Chloro‐2‐fluoroacetyl)‐2‐(3‐chlorobenzyl)hydrazineyl}‐1‐oxo‐3 phenylpropan‐2‐yl)amino]‐3,3‐dimethyl‐1‐oxobutan‐2‐yl}thiophene‐2‐carboxamide], at SARS‐CoV‐2 M^pro [3] (setting [10]), the inhibition at 50 µM is 69%. At SARS‐CoV‐2 M^pro [6], the inhibitory constant (Ki) is 4.34 ± 0.6 µM. Further, on SARS‐CoV‐2 M^pro [6] (setting [14]), it took 8.82 ± 1.22 µM to reach half-maximal inhibition (IC50). Besides, the “M^pro inhibition reversibility” value at SARS‐CoV‐2 M^pro [4] is “irreversible”.

One may read the EC50 as the concentration needed to bring the measured effect to its halfway point. The inhibition is how much of the control response was suppressed. The Ki is a dissociation constant, usually derived from enzyme kinetics or from competition with a known ligand. Broadly, the IC50 is the concentration needed to halve the response being measured. Read a high IC50 as weaker potency in that assay.
